# Measurements: PubChem BioAssay (NCI)
#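 96-well plates; 48 h exposure; 5 concentrations. Endpoints by linear interpolation between flanking doses. Not reached: highest tested concentration assigned. Definition used: TGI = concentration required for complete inhibition of growth.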
# Tests used:
# Assay in all cases: NCI-60 cell line screen, 48 h
# K-562 leukemia = tested on: K-562 leukemia
# SK-MEL-28 melanoma = tested on: SK-MEL-28 melanoma
# KM12 colon = tested on: KM12 colon
# OVCAR-4 ovarian = tested on: OVCAR-4 ovarian
# OVCAR-5 ovarian = tested on: OVCAR-5 ovarian
# RXF-631 renal = tested on: RXF-631 renal
# NCI-H23 lung = tested on: NCI-H23 lung
# CAKI-1 renal = tested on: CAKI-1 renal
# UACC-257 melanoma = tested on: UACC-257 melanoma
# MOLT-4 leukemia = tested on: MOLT-4 leukemia
# DMS 114 small cell lung = tested on: DMS 114 small cell lung
# SK-MEL-2 melanoma = tested on: SK-MEL-2 melanoma
# U251 CNS = tested on: U251 CNS
# KM20L2 colon = tested on: KM20L2 colon
# COLO 205 colon = tested on: COLO 205 colon
# NCI-H226 lung = tested on: NCI-H226 lung
# LOX IMVI melanoma = tested on: LOX IMVI melanoma
# EKVX NSCLC = tested on: EKVX NSCLC
# HCT-15 colon = tested on: HCT-15 colon
# M14 melanoma = tested on: M14 melanoma
# SF-539 CNS = tested on: SF-539 CNS
# A549 NSCLC = tested on: A549 NSCLC
# A498 renal = tested on: A498 renal
# ACHN renal = tested on: ACHN renal
# SF-268 CNS = tested on: SF-268 CNS
# HOP-18 NSCLC = tested on: HOP-18 NSCLC
# SK-OV-3 ovarian = tested on: SK-OV-3 ovarian
# CCRF-CEM leukemia = tested on: CCRF-CEM leukemia
# HT29 colon = tested on: HT29 colon
# NCI-H522 lung = tested on: NCI-H522 lung
# M19-MEL melanoma = tested on: M19-MEL melanoma
# RPMI-8226 leukemia = tested on: RPMI-8226 leukemia
# 786-0 renal = tested on: 786-0 renal
# RXF 393 renal = tested on: RXF 393 renal
# HOP-62 NSCLC = tested on: HOP-62 NSCLC
# MALME-3M melanoma = tested on: MALME-3M melanoma
# NCI-H460 lung = tested on: NCI-H460 lung
# HCT-116 colon = tested on: HCT-116 colon
# DLD-1 colon = tested on: DLD-1 colon
# UO-31 renal = tested on: UO-31 renal
# TK-10 renal = tested on: TK-10 renal
# SK-MEL-5 melanoma = tested on: SK-MEL-5 melanoma
# OVCAR-3 ovarian = tested on: OVCAR-3 ovarian
# SNB-75 CNS = tested on: SNB-75 CNS
# IGROV1 ovarian = tested on: IGROV1 ovarian
# SW-620 colon = tested on: SW-620 colon
# HCC-2998 colon = tested on: HCC-2998 colon
# SNB-19 CNS = tested on: SNB-19 CNS
# SF-295 CNS = tested on: SF-295 CNS
# UACC-62 melanoma = tested on: UACC-62 melanoma
# OVCAR-8 ovarian = tested on: OVCAR-8 ovarian
# LXFL 529 NSCLC = tested on: LXFL 529 NSCLC
# DMS 273 small cell lung = tested on: DMS 273 small cell lung
# HL-60(TB) leukemia = tested on: HL-60(TB) leukemia
# SN12C renal = tested on: SN12C renal
# HOP-92 NSCLC = tested on: HOP-92 NSCLC
# SNB-78 CNS = tested on: SNB-78 CNS
# SR leukemia = tested on: SR leukemia
# XF 498 CNS = tested on: XF 498 CNS
structure (smiles),measurement,setting,value
COc1cc([C@@H]2c3cc4c(cc3[C@@H](NCc3cccc(C#N)c3)C3COC(=O)[C@@H]32)OCO4)cc(OC)c1O (some centres not stated),TGI,K-562 leukemia,25.4 µM
same,TGI,SK-MEL-28 melanoma,46.1 µM
same,TGI,KM12 colon,4.66 µM
same,TGI,OVCAR-4 ovarian,> 100 µM
same,TGI,OVCAR-5 ovarian,14.6 µM
same,TGI,RXF-631 renal,4.64 µM
same,TGI,NCI-H23 lung,1.76 µM
same,TGI,CAKI-1 renal,20.8 µM
same,TGI,UACC-257 melanoma,> 100 µM
same,TGI,MOLT-4 leukemia,1.43 µM
same,TGI,DMS 114 small cell lung,9.19 µM
same,TGI,SK-MEL-2 melanoma,8.78 µM
same,TGI,U251 CNS,1.93 µM
same,TGI,KM20L2 colon,4.63 µM
same,TGI,COLO 205 colon,21.4 µM
same,TGI,NCI-H226 lung,2.4 µM
same,TGI,LOX IMVI melanoma,8.36 µM
same,TGI,EKVX NSCLC,6.58 µM
same,TGI,HCT-15 colon,3.17 µM
same,TGI,M14 melanoma,6.22 µM
same,TGI,SF-539 CNS,1.94 µM
same,TGI,A549 NSCLC,1.91 µM
same,TGI,A498 renal,4.27 µM
same,TGI,ACHN renal,1.58 µM
same,TGI,SF-268 CNS,> 100 µM
same,TGI,HOP-18 NSCLC,> 100 µM
same,TGI,SK-OV-3 ovarian,4.12 µM
same,TGI,CCRF-CEM leukemia,> 100 µM
same,TGI,HT29 colon,5.51 µM
same,TGI,NCI-H522 lung,3.56 µM
same,TGI,M19-MEL melanoma,50.3 µM
same,TGI,RPMI-8226 leukemia,7.33 µM
same,TGI,786-0 renal,2.62 µM
same,TGI,RXF 393 renal,19.6 µM
same,TGI,HOP-62 NSCLC,1.79 µM
same,TGI,MALME-3M melanoma,9.58 µM
same,TGI,NCI-H460 lung,2.09 µM
same,TGI,HCT-116 colon,21.4 µM
same,TGI,DLD-1 colon,12.7 µM
same,TGI,UO-31 renal,5.52 µM
same,TGI,TK-10 renal,6.84 µM
same,TGI,SK-MEL-5 melanoma,13 µM
same,TGI,OVCAR-3 ovarian,8.47 µM
same,TGI,SNB-75 CNS,4.45 µM
same,TGI,IGROV1 ovarian,15.2 µM
same,TGI,SW-620 colon,11.1 µM
same,TGI,HCC-2998 colon,4.51 µM
same,TGI,SNB-19 CNS,7.74 µM
same,TGI,SF-295 CNS,7 µM
same,TGI,UACC-62 melanoma,2.93 µM
same,TGI,OVCAR-8 ovarian,4.56 µM
same,TGI,LXFL 529 NSCLC,> 100 µM
same,TGI,DMS 273 small cell lung,5.89 µM
same,TGI,HL-60(TB) leukemia,1.51 µM
same,TGI,SN12C renal,2.93 µM
same,TGI,HOP-92 NSCLC,9.83 µM
O=c1oc2c3ccc4ccccc4c3n(CCN3CCCCC3)c2c2ccccc12,TGI,K-562 leukemia,> 100 µM
same,TGI,SK-MEL-28 melanoma,> 100 µM
same,TGI,KM12 colon,> 100 µM
same,TGI,OVCAR-4 ovarian,> 62 µM
same,TGI,OVCAR-5 ovarian,> 100 µM
same,TGI,RXF-631 renal,> 100 µM
same,TGI,NCI-H23 lung,> 69.5 µM
same,TGI,CAKI-1 renal,> 100 µM
same,TGI,UACC-257 melanoma,> 100 µM
same,TGI,MOLT-4 leukemia,> 100 µM
same,TGI,DMS 114 small cell lung,> 100 µM
same,TGI,SK-MEL-2 melanoma,65.6 µM
same,TGI,U251 CNS,65 µM
same,TGI,KM20L2 colon,> 100 µM
same,TGI,COLO 205 colon,> 100 µM
same,TGI,LOX IMVI melanoma,> 100 µM
same,TGI,EKVX NSCLC,> 100 µM
same,TGI,HCT-15 colon,> 100 µM
same,TGI,M14 melanoma,> 100 µM
same,TGI,SF-539 CNS,> 49.4 µM
same,TGI,SNB-78 CNS,> 31.6 µM
same,TGI,A549 NSCLC,> 100 µM
same,TGI,ACHN renal,> 100 µM
same,TGI,SF-268 CNS,> 68.7 µM
same,TGI,HOP-18 NSCLC,> 100 µM
same,TGI,SK-OV-3 ovarian,> 78.5 µM
same,TGI,CCRF-CEM leukemia,> 91.7 µM
same,TGI,HT29 colon,53.4 µM
same,TGI,NCI-H522 lung,> 100 µM
same,TGI,M19-MEL melanoma,> 100 µM
same,TGI,RPMI-8226 leukemia,> 100 µM
same,TGI,786-0 renal,27.9 µM
same,TGI,RXF 393 renal,29.3 µM
same,TGI,HOP-62 NSCLC,58.9 µM
same,TGI,MALME-3M melanoma,> 88.6 µM
same,TGI,NCI-H460 lung,> 43.9 µM
same,TGI,HCT-116 colon,> 100 µM
same,TGI,DLD-1 colon,> 100 µM
same,TGI,UO-31 renal,> 100 µM
same,TGI,TK-10 renal,> 100 µM
same,TGI,SK-MEL-5 melanoma,> 100 µM
same,TGI,OVCAR-3 ovarian,54.1 µM
same,TGI,SNB-75 CNS,19.6 µM
same,TGI,IGROV1 ovarian,> 100 µM
same,TGI,SR leukemia,> 100 µM
same,TGI,SW-620 colon,> 100 µM
same,TGI,HCC-2998 colon,> 100 µM
same,TGI,SNB-19 CNS,> 100 µM
same,TGI,SF-295 CNS,39.3 µM
same,TGI,UACC-62 melanoma,> 78.8 µM
same,TGI,XF 498 CNS,42.9 µM
same,TGI,OVCAR-8 ovarian,> 67.3 µM
same,TGI,LXFL 529 NSCLC,> 100 µM
same,TGI,DMS 273 small cell lung,> 100 µM
same,TGI,HL-60(TB) leukemia,> 100 µM
same,TGI,SN12C renal,> 100 µM
same,TGI,HOP-92 NSCLC,> 100 µM
CCCc1cc(OC(=O)c2c(O)cc(OC)cc2CCC)cc(O)c1C(=O)O,TGI,K-562 leukemia,> 100 µM
same,TGI,SK-MEL-28 melanoma,70.6 µM
same,TGI,KM12 colon,> 100 µM
same,TGI,OVCAR-5 ovarian,> 100 µM
same,TGI,RXF-631 renal,63.8 µM
same,TGI,NCI-H23 lung,42.8 µM
same,TGI,UACC-257 melanoma,56.2 µM
same,TGI,MOLT-4 leukemia,84.2 µM
same,TGI,DMS 114 small cell lung,56 µM
same,TGI,SK-MEL-2 melanoma,47.4 µM
same,TGI,U251 CNS,68.4 µM
same,TGI,KM20L2 colon,> 100 µM
same,TGI,COLO 205 colon,79.2 µM
same,TGI,LOX IMVI melanoma,61.7 µM
same,TGI,EKVX NSCLC,86.8 µM
same,TGI,M14 melanoma,73.7 µM
same,TGI,SF-539 CNS,34.7 µM
same,TGI,SNB-78 CNS,64.1 µM
same,TGI,A549 NSCLC,> 100 µM
same,TGI,A498 renal,98.8 µM
same,TGI,ACHN renal,80.2 µM
same,TGI,SK-OV-3 ovarian,68.4 µM
same,TGI,CCRF-CEM leukemia,95.4 µM
same,TGI,HT29 colon,> 100 µM
same,TGI,NCI-H522 lung,43.9 µM
same,TGI,M19-MEL melanoma,> 100 µM
same,TGI,RPMI-8226 leukemia,60.7 µM
same,TGI,786-0 renal,> 100 µM
same,TGI,RXF 393 renal,53.2 µM
same,TGI,HOP-62 NSCLC,35.6 µM
same,TGI,MALME-3M melanoma,42.3 µM
same,TGI,NCI-H460 lung,76.6 µM
same,TGI,HCT-116 colon,32.2 µM
same,TGI,DLD-1 colon,> 100 µM
same,TGI,UO-31 renal,35.9 µM
same,TGI,TK-10 renal,> 100 µM
same,TGI,OVCAR-3 ovarian,61.2 µM
same,TGI,SNB-75 CNS,73.4 µM
same,TGI,IGROV1 ovarian,> 100 µM
same,TGI,SW-620 colon,> 100 µM
same,TGI,HCC-2998 colon,66.2 µM
same,TGI,SNB-19 CNS,> 100 µM
same,TGI,UACC-62 melanoma,78.1 µM
same,TGI,XF 498 CNS,74.4 µM
same,TGI,OVCAR-8 ovarian,> 100 µM
same,TGI,LXFL 529 NSCLC,62.9 µM
same,TGI,DMS 273 small cell lung,95.7 µM
same,TGI,HL-60(TB) leukemia,52.7 µM
same,TGI,HOP-92 NSCLC,39 µM
